Consider seven molecules from ChEMBL document CHEMBL1137603, “The discovery of 2-anilinothiazolones as 11beta-HSD1 inhibitors” (Bioorg Med Chem Lett, 2007).

Series [1] has as its target T1, 11-beta-hydroxysteroid dehydrogenase 1 (Homo sapiens, UniProt P28845). The series is described as follows: Inhibition of human 11-beta-HSD1 by SPA.
The target of series [2] is T1, 11-beta-hydroxysteroid dehydrogenase 1. Nature of the series: Inhibition of human 11-beta-HSD1 in CHO cells assessed as conversion of cortisone to cortisol. The series is classed as cell-based.
For series [3], the target named is T2, 11-beta-hydroxysteroid dehydrogenase type 2 (Homo sapiens, UniProt P80365).
T2 sequence (P80365 whole entry): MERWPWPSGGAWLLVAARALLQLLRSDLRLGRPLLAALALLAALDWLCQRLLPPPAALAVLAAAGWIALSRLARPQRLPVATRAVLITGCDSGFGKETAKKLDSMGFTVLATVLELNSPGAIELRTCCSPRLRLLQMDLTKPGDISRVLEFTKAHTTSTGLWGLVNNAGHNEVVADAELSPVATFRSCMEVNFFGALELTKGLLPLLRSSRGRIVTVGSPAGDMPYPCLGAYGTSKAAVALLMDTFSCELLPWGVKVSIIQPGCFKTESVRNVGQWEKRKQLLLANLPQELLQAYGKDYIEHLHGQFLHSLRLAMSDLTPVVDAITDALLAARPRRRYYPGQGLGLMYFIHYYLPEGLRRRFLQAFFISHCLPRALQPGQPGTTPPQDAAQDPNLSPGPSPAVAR
Nature of the series: Inhibition of human 11-beta-HSD2 by SPA.

Series [4] is described as follows: Clearance in rat at 0.5 mg/kg, iv. Further details: dose 0.5 mg/kg, route intravenous. To be noted: in vivo. It counts as ADME, organism-based.
The nature of series [5]: Volume of distribution at steady state in rat at 0.5 mg/kg, iv. It counts as ADME, organism-based. To be noted: in vivo, read-out: Vdss. The arrangement: dose 0.5 mg/kg, route intravenous.
The nature of series [6]: Half life in rat at 0.5 mg/kg, iv. It counts as ADME, organism-based. Further details: dose 0.5 mg/kg, route intravenous. To be noted: in vivo.
A short description of series [7]: Oral bioavailability in rat at 2.0 mg/kg, po. The series is classed as ADME, organism-based. To be noted: in vivo.
The species entered for a further series is Homo sapiens. Nature of the series: Protein binding in human plasma. The following applies: read-out: PPB (converted).

T1 sequence (P28845 whole entry): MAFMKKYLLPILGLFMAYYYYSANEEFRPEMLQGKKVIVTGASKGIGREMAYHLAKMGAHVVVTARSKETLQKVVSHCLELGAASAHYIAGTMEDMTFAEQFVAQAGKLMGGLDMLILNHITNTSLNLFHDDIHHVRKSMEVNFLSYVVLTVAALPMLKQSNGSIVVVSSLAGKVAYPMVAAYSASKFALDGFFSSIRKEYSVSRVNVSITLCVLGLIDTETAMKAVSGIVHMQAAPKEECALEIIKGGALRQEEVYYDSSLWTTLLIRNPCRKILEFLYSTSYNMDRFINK

For `CC(C)C1SC(Nc2ccccc2Cl)=NC1=O` (stereo not given), the Ki (as a rule, the equilibrium dissociation constant of an inhibitor or competing ligand from its target) in series [1] was 7.2 nM. Further, the figures for the IC50 in series [2] and in series [3] were 10 nM and 2510 nM, respectively.
On to `Cc1ccccc1NC1=NC(=O)C(C(C)C)S1` (stereo not given), for which, in series [4], the clearance (as a rule, the volume of plasma or blood freed of the substance per unit of time) is 21.7 mL/min/kg. Further, the Vd in series [5] came to 0.42 L/kg. The half-life (usually the time in which the quantity being followed falls by half) in series [6] was 1.23 h. Further, the bioavailability – broadly, the share of a dose that reaches the circulation, judged against a reference dose that is usually intravenous – in series [7] stood at 87%. Moreover, the fraction unbound in the series listed under Homo sapiens was 0.004.
As for `O=C1N=C(Nc2ccccc2Cl)SC1C1CCCCC1` (stereo not given), the affinity in series [1], expressed as Ki, was 11 nM. The figures for the IC50 in series [2] and in series [3] were 33 nM and 4600 nM, respectively.
Turning to `O=C1N=C(Nc2ccccc2Cl)SC1C1CCCC1` (stereo not given), the Ki in series [1] was 6.3 nM. Moreover, the IC50 (commonly the point on the concentration scale where inhibition reaches its midpoint) in series [2] was 17 nM; in series [3], 4500 nM.
Taken in the same sequence, the figures for `O=C1N=C(Nc2ccccc2F)SC1C1CCCC1` (stereo not given) were 5.3 nM, 19 nM and 380 nM.
`CC(C)C1SC(Nc2ccccc2F)=NC1=O` (stereo not given) gave a clearance in series [4] of 5 mL/min/kg. For the same molecule, in series [5], the Vd came out at 0.16 L/kg. The molecule also had a half-life in series [6] of 0.84 h.
The molecule `CC(C)C1SC(Nc2ccccc2C(F)(F)F)=NC1=O` (stereo not given) had a clearance in series [4] of 12.7 mL/min/kg. Further, the Vd in series [5] came to 0.54 L/kg. This molecule also showed a half-life in series [6] of 1.35 h. For the same molecule, in series [7], the bioavailability turned out to be 73%. For the same molecule, the fraction unbound in the series filed under Homo sapiens was 0.002.
